Values of other authors in article PMC6048117 (Scientific Reports, 2018).
Like-named read-outs stand apart in the source and are kept apart here.

Columns and labels:
[1] = system: MPTP model
[2] = system: nigral 6-OHDA partial or full lesion rat model

Substance: lixisenatide
- Neuroprotection in MPTP model ([1]; 10 nmol/kg): did demonstrate neuroprotection

Substance: liraglutide (HAEGTFTSDVSSYLEGQAAKEFIAWLVRGRG; chains of the INN, looked up) [GLP-1R agonist]
- Neuroprotection in MPTP model ([1]; 25 nmol/kg): did demonstrate neuroprotection
- Efficacy in nigral 6-OHDA partial or full lesion rat model [2]: failed to demonstrate efficacy
